US8710233B2 (Gruenenthal GmbH, priority 2005, dated 2014)
Read-outs that look alike come from different tables or passages of the source.

How the values were obtained:
Type in all cases: cell-based
[1] = target: T1, vanilloid receptor 1 (VR1/TRPV1) of the rat species (Rattus norvegicus, UniProt O35433); experiment: FLIPR Ca2+ influx assay on rat dorsal root ganglia cells (pharmacological method I); details: table 4, capsaicin
T1 construct: The spinal column is removed from decapitated rats; from tissue; host or cells: primary cells dissociated from rat dorsal root ganglia
T1 sequence (O35433 whole entry): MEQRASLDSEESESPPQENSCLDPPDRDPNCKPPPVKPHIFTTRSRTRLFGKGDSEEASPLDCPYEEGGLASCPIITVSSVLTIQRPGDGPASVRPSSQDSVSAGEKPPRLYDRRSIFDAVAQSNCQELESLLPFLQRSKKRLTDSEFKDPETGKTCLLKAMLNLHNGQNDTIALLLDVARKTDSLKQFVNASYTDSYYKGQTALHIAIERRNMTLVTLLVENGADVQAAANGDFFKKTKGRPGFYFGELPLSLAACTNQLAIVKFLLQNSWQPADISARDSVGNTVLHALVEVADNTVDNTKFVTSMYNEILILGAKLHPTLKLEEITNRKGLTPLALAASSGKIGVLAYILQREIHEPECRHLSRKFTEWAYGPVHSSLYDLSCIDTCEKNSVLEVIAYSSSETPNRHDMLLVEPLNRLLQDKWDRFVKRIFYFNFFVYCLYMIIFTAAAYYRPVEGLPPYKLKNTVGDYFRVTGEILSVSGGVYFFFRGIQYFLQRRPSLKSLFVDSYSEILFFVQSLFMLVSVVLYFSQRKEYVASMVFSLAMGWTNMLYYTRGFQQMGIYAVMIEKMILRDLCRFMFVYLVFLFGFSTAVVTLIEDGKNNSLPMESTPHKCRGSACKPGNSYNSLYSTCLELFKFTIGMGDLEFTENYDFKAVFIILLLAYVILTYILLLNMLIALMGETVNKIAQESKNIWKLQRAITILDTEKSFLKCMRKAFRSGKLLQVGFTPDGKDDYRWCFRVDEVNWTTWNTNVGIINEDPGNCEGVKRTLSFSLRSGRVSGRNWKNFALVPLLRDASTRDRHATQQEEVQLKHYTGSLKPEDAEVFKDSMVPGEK
Method in brief: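 Primary rat dorsal root ganglion cells loaded with 2 μM Fluo-4, Ca2+ influx read on FLIPR as peak fluorescence. Triplicates, at least 3 independent experiments.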

vanilloid receptor (VR1) = target: T2, vanilloid receptor (VR1) (Homo sapiens, UniProt Q8NER1); experiment: FLIPR Ca2+ influx assay on CHO K1 cells transfected with the VR1 gene (pharmacological method II); details: table 4; capsaicin; read-out: Ki (human) Cap.
T2 construct: expressed in transfected cells; host or cells: CHO K1 cells (ECACC), stably transfected
T2 sequence (Q8NER1 whole entry): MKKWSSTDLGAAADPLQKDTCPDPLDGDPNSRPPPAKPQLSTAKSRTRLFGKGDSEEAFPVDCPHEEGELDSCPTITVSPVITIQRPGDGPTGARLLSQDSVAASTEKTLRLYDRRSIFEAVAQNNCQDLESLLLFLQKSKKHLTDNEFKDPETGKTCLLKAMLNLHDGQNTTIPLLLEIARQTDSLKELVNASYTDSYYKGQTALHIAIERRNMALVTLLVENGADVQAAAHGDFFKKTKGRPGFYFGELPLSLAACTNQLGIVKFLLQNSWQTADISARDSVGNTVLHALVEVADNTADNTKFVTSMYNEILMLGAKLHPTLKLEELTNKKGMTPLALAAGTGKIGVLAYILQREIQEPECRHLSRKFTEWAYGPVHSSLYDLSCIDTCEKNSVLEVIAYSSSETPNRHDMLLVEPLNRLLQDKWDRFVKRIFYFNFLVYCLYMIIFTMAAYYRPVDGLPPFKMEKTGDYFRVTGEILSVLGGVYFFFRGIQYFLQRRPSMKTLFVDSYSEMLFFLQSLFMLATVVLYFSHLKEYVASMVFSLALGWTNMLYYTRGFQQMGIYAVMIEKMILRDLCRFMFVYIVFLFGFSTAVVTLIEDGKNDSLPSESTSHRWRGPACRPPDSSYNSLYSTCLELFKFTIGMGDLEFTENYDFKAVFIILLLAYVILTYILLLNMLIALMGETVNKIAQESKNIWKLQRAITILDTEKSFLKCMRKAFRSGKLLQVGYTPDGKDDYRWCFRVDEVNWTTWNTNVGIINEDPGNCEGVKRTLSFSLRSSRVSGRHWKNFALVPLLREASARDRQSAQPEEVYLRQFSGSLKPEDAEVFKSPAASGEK

VR1/TRPV1 receptor = VR1/TRPV1 receptor (Homo sapiens, UniProt Q8NER1); experiment: IC50 (human) after pH stimulus; details: for IC50: table 4; for inhibition at 0.1 µM / inhibition at 1 µM / inhibition at 10 µM: read-out: inhibition in percent, IC50 (human) after pH stimulus; for inhibition at 1 µM / inhibition in percent, IC50 (human) after pH stimulus: ne = no effect, @ 1 μM
Sequence of VR1/TRPV1 receptor (Q8NER1 whole entry): as above

| Compound | Ki ([1]; read-out: Ki (rat) Cap.) [nM] | Ki (vanilloid receptor (VR1)) [nM] | IC50 (VR1/TRPV1 receptor) [nM] | inhibition at 0.1 µM (VR1/TRPV1 receptor) [%] | inhibition at 1 µM (VR1/TRPV1 receptor) [%] | inhibition at 10 µM (VR1/TRPV1 receptor) [%] | Ki ([1]; Ki (rat) Cap.) [nM] | inhibition in percent, IC50 (human) after pH stimulus (VR1/TRPV1 receptor) |
| --- | --- | --- | --- | --- | --- | --- | --- | --- |
| CC(C(=O)NCc1ccc(C(F)(F)F)nc1N1CCC2(CC1)CC(c1ccccc1)=NO2)c1ccc(NS(C)(=O)=O)c(F)c1 (stereo not shown) [Example 252, 2-(3-fluoro-4-methylsulfonamido-phenyl)-N-[2-(3-phenyl-1-oxa-2,8-diaza-spiro[4.5]dec-2-en-8-yl)-6-trifluoromethyl-pyridin-3-ylmethyl]-propionamide] | 17.9 | 6.1 | 289 |  |  |  |  |  |
| COc1ccc(-c2nc(C(F)(F)F)ccc2CNC(=O)C(C)c2ccc(NS(C)(=O)=O)c(F)c2)cc1F (stereo not shown) [Example 254, 2-(3-fluoro-4-methylsulfonamido-phenyl)-N-[2-(3-fluoro-4-methoxy-phenyl)-6-trifluoromethyl-pyridin-3-ylmethyl]-propionamide] | 1.3 | 4.2 |  | 19 | 63 |  |  |  |
| CC(C(=O)NCc1ccc(C(F)(F)F)cc1N1CCC(c2ccc(F)cc2)CC1)c1ccc(NS(C)(=O)=O)c(F)c1 (stereo not shown) [Example 255, 2-(3-fluoro-4-methylsulfonamido-phenyl)-N-{2-[4-(4-fluoro-phenyl)-piperidin-1-yl]-4-trifluoromethyl-benzyl}-propionamide] | 1.3 | 0.9 | 101 |  |  |  |  |  |
| CCCCOc1nc(C(F)(F)F)ccc1CNC(=O)C(C)c1ccc(NS(C)(=O)=O)c(C)c1 (stereo not shown) [Example 256, N-(2-butoxy-6-trifluoromethyl-pyridin-3-ylmethyl)-2-(4-methylsulfonamido-3-methyl-phenyl)-propionamide] | 0.3 | 0.6 |  |  | 59 |  |  |  |
| CCCCCCOc1nc(C(F)(F)F)ccc1CNC(=O)C(C)c1ccc(NS(C)(=O)=O)c(C)c1 (stereo not shown) [Example 257, N-(2-hexyloxy-6-trifluoromethyl-pyridin-3-ylmethyl)-2-(4-methylsulfonamido-3-methyl-phenyl)-propionamide] | 0.3 | 0.6 |  |  | 67 |  |  |  |
| CC(C(=O)NCc1ccc(C(F)(F)F)nc1OCc1ccc(Cl)cc1)c1ccc(NS(C)(=O)=O)c(F)c1 (stereo not shown) [Example 258, N-[2-(4-chloro-benzyloxy)-6-trifluoromethyl-pyridin-3-ylmethyl]-2-(3-fluoro-4-methylsulfonamido-phenyl)-propionamide] | 1.3 | 2.5 | 132 |  |  |  |  |  |
| CC(C(=O)NCc1ccc(C(F)(F)F)nc1N1CCC(CN(C)C)(c2ccccc2)CC1)c1ccc(NS(C)(=O)=O)c(F)c1 (stereo not shown) [Example 259, N-(4-dimethylaminomethyl-4-phenyl-6′-trifluoromethyl-3,4,5,6-tetrahydro-2H-[1,2′]bipyridinyl-3′-ylmethyl)-2-(3-fluoro-4-methylsulfonamido-phenyl)-propionamide] | 22.8 | 15.4 |  |  | 51 | 47 |  |  |
| CC(C(=O)NCc1ccc(C(F)(F)F)nc1N1CCN(C2CCCCC2)CC1)c1ccc(NS(C)(=O)=O)c(F)c1 (stereo not shown) [Example 260, N-[2-(4-cyclohexyl-piperazin-1-yl)-6-trifluoromethyl-pyridin-3-ylmethyl]-2-(3-fluoro-4-methylsulfonamido-phenyl)-propionamide] | 25.3 | 21.6 |  |  | 51 | 66 |  |  |
| CC1CCN(c2nc(C(F)(F)F)ccc2CNC(=O)C(C)c2ccc(NS(C)(=O)=O)cc2)CC1 (stereo not shown) [Example 262, 2-(4-methylsulfonamido-phenyl)-N-(4-methyl-6′-trifluoromethyl-3,4,5,6-tetrahydro-2H-[1,2′]bipyridinyl-3′-ylmethyl)-propionamide] | 1.7 | 1.2 |  | 6 | 58 |  |  |  |
| CC(C(=O)NCc1ccc(C(F)(F)F)nc1CCC(C)(C)C)c1ccc(NS(C)(=O)=O)c(F)c1 (stereo not shown) [Example 263, N-[2-(3,3-dimethyl-butyl)-6-trifluoromethyl-pyridin-3-ylmethyl]-2-(3-fluoro-4-methylsulfonamido-phenyl)-propionamide] | 0.7 | 0.6 |  |  | 63 |  |  |  |
| Cc1ccc(CCc2nc(C(F)(F)F)ccc2CNC(=O)C(C)c2ccc(NS(C)(=O)=O)c(F)c2)cc1 (stereo not shown) [Example 264, 2-(3-fluoro-4-methylsulfonamido-phenyl)-N-[2-(2-p-tolyl-ethyl)-6-trifluoromethyl-pyridin-3-ylmethyl]-propionamide] | 0.9 | 0.6 | 15.9 |  |  |  |  |  |
| CC(C(=O)NCc1ccc(C(F)(F)F)nc1-c1ccc2c(c1)OCCO2)c1ccc(NS(C)(=O)=O)c(F)c1 (stereo not shown) [Example 265, N-[2-(2,3-dihydro-benzo[1,4]dioxin-6-yl)-6-trifluoromethyl-pyridin-3-ylmethyl]-2-(3-fluoro-4-methylsulfonamido-phenyl)-propionamide] | 2.5 | 5 |  | 17 | 33 |  |  |  |
| CCCCCCc1nc(C(F)(F)F)ccc1CNC(=O)C(C)c1ccc(NS(C)(=O)=O)c(F)c1 (stereo not shown) [Example 267, 2-(3-fluoro-4-methylsulfonamido-phenyl)-N-(2-hexyl-6-trifluoromethyl-pyridin-3-ylmethyl)-propionamide] | 1.7 | 1.6 | 24 |  |  |  |  |  |
| CC(C)CCCc1nc(C(F)(F)F)ccc1CNC(=O)C(C)c1ccc(NS(C)(=O)=O)c(F)c1 (stereo not shown) [Example 268, 2-(3-fluoro-4-methylsulfonamido-phenyl)-N-[2-(4-methyl-pentyl)-6-trifluoromethyl-pyridin-3-ylmethyl]-propionamide] | 0.8 | 0.9 | 17 |  |  |  |  |  |
| CC(C(=O)NCc1ccc(C(F)(F)F)nc1OCC1CCCCC1)c1ccc(NS(C)(=O)=O)c(F)c1 (stereo not shown) [Example 270, N-(2-cyclohexylmethoxy-6-trifluoromethyl-pyridin-3-ylmethyl)-2-(3-fluoro-4-methylsulfonamido-phenyl)-propionamide] |  | 0.7 | 19.7 |  |  |  | 0.5 |  |
| CC1CCC(COc2nc(C(F)(F)F)ccc2CNC(=O)C(C)c2ccc(NS(C)(=O)=O)c(F)c2)CC1 (stereo not shown) [Example 271, 2-(3-fluoro-4-methylsulfonamido-phenyl)-N-[2-(4-methyl-cyclohexylmethoxy)-6-trifluoromethyl-pyridin-3-ylmethyl]-propionamide] |  | 1 | 44.4 |  |  |  | 1.1 |  |
| CC(C(=O)NCc1ccc(C(F)(F)F)nc1OCC1CC1(C)C)c1ccc(NS(C)(=O)=O)c(F)c1 (stereo not shown) [Example 279, N-[2-(2,2-dimethyl-cyclopropylmethoxy)-6-trifluoromethyl-pyridin-3-ylmethyl]-2-(3-fluoro-4-methylsulfonamido-phenyl)-propionamide] |  | 1.1 | 161 |  |  |  | 1.7 |  |
| CC1CCCN(c2nc(C(F)(F)F)ccc2CNC(=O)C(C)c2ccc(NS(C)(=O)=O)c(F)c2)C1 (stereo not shown) [Example 282, 2-(3-fluoro-4-methylsulfonamido-phenyl)-N-(3-methyl-6′-trifluoromethyl-3,4,5,6-tetrahydro-2H-[1,2′]bipyridinyl-3′-ylmethyl)-propionamide] | 1.2 | 0.8 |  |  | 57 | 62 |  |  |
| CC(C(=O)NCc1ccc(C(F)(F)F)nc1N1CCCCC1C)c1ccc(NS(C)(=O)=O)c(F)c1 (stereo not shown) [Example 283, 2-(3-fluoro-4-methylsulfonamido-phenyl)-N-(2-methyl-6′-trifluoromethyl-3,4,5,6-tetrahydro-2H-[1,2′]bipyridinyl-3′-ylmethyl)-propionamide] | 4.5 | 2.9 |  |  | 51 | 51 |  |  |
| CC1CCN(c2nc(C(F)(F)F)ccc2CCNC(=O)C(C)c2ccc(NS(C)(=O)=O)c(F)c2)CC1 (stereo not shown) [Example 284, 2-(3-fluoro-4-methylsulfonamido-phenyl)-N-[2-(4-methyl-6′-trifluoromethyl-3,4,5,6-tetrahydro-2H-[1,2′]bipyridinyl-3′-yl)-ethyl]-propionamide] | 48 | 54.9 |  |  |  |  |  | ne @ 1 μM |
| CC(C(=O)NCc1ccc(C(F)(F)F)nc1N1CCC(C#N)(c2ccccc2)CC1)c1ccc(NS(C)(=O)=O)c(F)c1 (stereo not shown) [Example 285, N-(4-cyano-4-phenyl-6′-trifluoromethyl-3,4,5,6-tetrahydro-2H-[1,2′]bipyridinyl-3′-ylmethyl)-2-(3-fluoro-4-methylsulfonamido-phenyl)-propionamide] | 4.5 | 3.5 | 377 |  |  |  |  |  |
| CCS(=O)(=O)Nc1ccc(C(C)C(=O)NCc2ccc(C(F)(F)F)nc2N2CCC(C)CC2)cc1F (stereo not shown) [Example 287, 2-(4-ethanesulfonylamino-3-fluoro-phenyl)-N-(4-methyl-6′-trifluoromethyl-3,4,5,6-tetrahydro-2H-[1,2′]bipyridinyl-3′-ylmethyl)-propionamide] | 3.5 | 4.4 | 189 |  |  |  |  |  |
| CC1CCN(c2nc(C(F)(F)F)ccc2CNC(=O)C(C)c2ccc(NS(=O)(=O)N(C)C)c(F)c2)CC1 (stereo not shown) [Example 288, 2-(4-dimethylaminsulfonylamino-3-fluoro-phenyl)-N-(4-methyl-6′-trifluoromethyl-3,4,5,6-tetrahydro-2H-[1,2′]bipyridinyl-3′-ylmethyl)-propionamide] | 41 | 42 |  |  |  |  |  | ne @ 1 μM |
